Results: publication PMC9995618 (Journal of Genetic Engineering & Biotechnology, 2023)

Tested on: T1, tick larvae glutathione S transferase (TLGST)
T1 construct: native enzyme purified from larvae (42 kDa; 28 and 14 kDa subunits)
Test: CDNB-GSH conjugation assay, Lineweaver-Burk and Ki plot
Type: biochemical, Hyalomma dromedarii

O=C(O)c1cc[c]([Hg][Cl])cc1 [p-chloromercuribenzoic acid]
Ki: 300 µM
